Data reported in a melting point compilation (Tetko et al.; mined from patent text by program, amines drawn as free bases though some values may be those of a salt).

Point of comparison: `CCCCCS(=O)(=O)NC(=O)/C=C/c1ccc(OCCOC)cc1NC(=O)c1ccc(Cl)cc1Cl`, melting point 177 °C. Against it:
- CC(N=Cc1ccc(O)cc1)c1ccccc1 (single isomer, unassigned; (-)) — not separable, 176 to 178 °C
- Nc1csc(-c2ccccc2)c1 — lower, 76 to 78 °C
- Oc1ccccc1C=NCCN=Cc1ccccc1O — lower, 126 °C
- CC(=C(Br)Br)c1cn(-c2c(Cl)cc(C(F)(F)F)cc2Cl)nc1C#N — lower, 119 to 122 °C
- Cc1noc(NS(=O)(=O)c2nccs2)c1Cl — lower, 171 to 173 °C
- CCOC(=O)c1nn(C(=O)Nc2ccccc2)c(C)c1C — lower, 139 to 140 °C
- Cc1cc(O)c(SCc2ccccc2)c(=O)o1 — lower, 128 °C
- BrCCCCCOc1ccc2c(c1)OCO2 — lower, 54 to 57 °C
- CSc1cc2nc[nH]c(=O)c2s1 — higher, 216 to 218 °C
- OP(O)C(NC(c1ccccc1)c1ccccc1)C1CCCCC1 (stereo not given) — higher, 199 °C
- CN1CCN(c2ccc(Nc3ncc4ccc(Sc5ccccc5)n4n3)cc2)CC1 — lower, 155 to 157 °C
- CCCCCCCCCCC1(CCCCCCCCCC)c2cc(Br)ccc2-c2ccc(Br)cc21 — lower, 38.1 to 38.4 °C
- COc1cccc(NCc2sccc2S(=O)(=O)Nc2onc(C)c2Br)c1 — lower, 70 to 73 °C
- CCC(=O)NCCC1CCc2ccc3c(c21)OCO3 (stereo not given) — lower, 102 to 104 °C
- CCOC(=O)Cc1nn2c(-c3ccc(OC)cc3)nnc2c2ccccc12 — higher, 201 to 202 °C
- CCOC(=O)C=Cc1cccc(Nc2ccc3nc[nH]c3c2)c1 — higher, 188 to 190 °C
- CCCCNC(=O)c1cc(=O)c(Oc2ccccc2)co1 — lower, 149 to 151 °C
- O=C1C(=O)N(CCCN2CCN(C(=O)N(c3ccccc3)c3ccccc3)CC2)c2ccccc21 — lower, 163 to 164 °C
- CC1(C)CN(CCN2CC(C)(C)N(O)C(C)(C)C2=O)C(=O)C(C)(C)N1O — higher, 193 °C
- CCOC(=O)c1ncn2c1[C@@H]1CCCN1C(=O)c1ccccc1-2 — higher, 196 to 197 °C
- CC(C)(C)NCC(Cc1ccc(OCc2ccccc2)cc1)NCc1ccc(C(C)(C)C)cc1 (stereo not given) — lower, 63 to 65 °C
- CC(C)N1CCN(C(=O)c2cc([N+](=O)[O-])cc(C(F)(F)F)c2)CC1 — lower, 70.7 °C
- CN1CCN(S(=O)(=O)CCCOc2ccc3ncnn3n2)CC1 — lower, 140 to 141 °C
- CCCCCCCCCCCCCCCC(=O)N[C@@H](Cc1ccc(O)cc1)C(=O)OC — lower, 100 °C
- CCC(=O)NC(C)(C)c1ccc(C(=O)Nc2cn3cc(Cl)ccc3n2)cc1 — higher, 249 to 252 °C
- CC(C)Oc1cccc2c1C1=NCCN1c1c(-c3noc(C4CC4)n3)ncn1-2 — higher, 211 to 214 °C
- N#Cc1nn(-c2c(Cl)cc(C(F)(F)F)cc2Cl)c(N)c1C(F)(F)F — higher, 191 to 193 °C
- CC(C)(C)c1cc(SCCC(=O)NC23CC4CC(CC(C4)C2)C3)cc(C(C)(C)C)c1O — lower, 172 to 174 °C
- Cc1cccc(C(=O)c2[nH]c3cc(Cl)ccc3c2NC(=O)CC(C)C)c1 — higher, 182 to 185 °C
- C=CS(=O)(=O)C=CSc1ccc(C(C)(C)C)cc1 — lower, 62 to 64 °C
- CC(C)C(=O)Nc1ccc(C(=O)Nc2ccccc2N)cc1 — higher, 248 °C
- CC(C)(C)OC(=O)NCCCc1ccccc1OCc1ccccc1 — lower, 50 to 52 °C
- CS(=O)(=O)c1ccc(-n2nc(C(F)(F)F)cc2-c2ccc(-c3nccs3)cc2)cc1 — higher, 206 to 207 °C
- Cc1nc2c3c(ccn2c1C)C(OCCO)C(O)C(c1ccccc1)N3 (stereo not given) — lower, 107 to 109 °C
- CC(CN1C(=O)C2(COc3cc4c(cc32)CCO4)c2ccccc21)OCc1ccccn1 (stereo not given) — lower, 46 to 54 °C
- CC1Sc2nccn2C1(C)C(O)CCc1ccco1 (stereo not given) — lower, 144 to 145 °C
- c1ccc(-c2nc(-c3ccc(CN4CCCCCC4)s3)n[nH]2)nc1 — lower, 160 to 162 °C
- CC(C)Cn1c(=O)n(C)c(=O)c2c(CCCCC(=O)O)n(Cc3cccc4ccccc34)cc21 — lower, 146 to 147 °C
- CCc1ccc2nc(OC)nc(N)c2c1 — lower, 168 to 170 °C
- Cc1cccc2cc(N3CCN(C)CC3)[nH]c(=O)c12 — higher, 224 to 225 °C
- O=C(c1nnn(Cc2cc(C(F)(F)F)cc(C(F)(F)F)c2)c1-n1ccnc1)c1c(CO)noc1-c1ccccc1Cl — lower, 149 °C
- Cn1cnc2ccc(N/C(=C3\C(=O)Nc4ccccc43)c3ccccc3)cc21 — lower, 163 to 165 °C
- CC(C)(C)OC(=O)C(C1NC(C(=O)O)C2(CCSCC2)S1)N1C(=O)c2ccccc2C1=O (stereo not given) — higher, 210 to 212 °C
- COC(=O)C(=C(C)NCC(O)CO)c1ncc([N+](=O)[O-])cc1[N+](=O)[O-] (stereo not given) — lower, 128 to 129 °C
- CN1CCCC(C(=O)N2CCC(c3[nH]nc4c3C(=O)c3c(NC(=O)NN5CCOCC5)cccc3-4)CC2)C1 (stereo not given) — lower, 158 to 160 °C
- CCCCOc1ccc(C(=O)Nc2ccc3cc(CN4CCCC4C)cnc3c2C)cc1 (stereo not given) — lower, 153 to 156 °C
- C#CC[C@H](c1nc2cc(Cl)ccc2c(=O)n1Nc1ccccc1)N(CCCN)C(=O)c1cc(F)c(F)c(F)c1F — lower, 155 to 158 °C
- O=C(O)c1cn(C2CC2)c2cc(N3CCNC(c4cc5ccccc5o4)C3)c(F)cc2c1=O (stereo not given) — higher, 203 to 206 °C
- CC1(C)OCC2Cc3cc4c(cc3C(c3ccc([N+](=O)[O-])cc3)=NN21)OCO4 (stereo not given) — lower, 171 to 173 °C
- O=C(O)[C@H](Cc1ccccc1)NC(=O)[C@@H]1CCCN1C(=O)c1ccccc1 — higher, 200 to 202 °C
- O=C(CCl)c1ccc2cc(O)c(O)cc2c1 — higher, > 320 °C
- O=C(C=Cc1ccncc1)c1cccs1 — lower, 150 to 152 °C
- CCOC(=O)C(C)(C)Oc1ccc(OCCc2nc(-c3ccc(C(N)=O)cc3)oc2C)cc1 — lower, 112 °C
- CN(CCc1ccc([N+](=O)[O-])cc1)C1Cc2ccc([N+](=O)[O-])cc2C1 (stereo not given) — lower, 138 to 141 °C
- O=P(O)(O)CSc1nc2cc(Cl)c(C#Cc3ccccc3)cc2[nH]1 — higher, 210 to 215 °C
- CNC(=O)N(O)Cc1ccc(OCCc2nc(-c3ccccc3)oc2C)cc1 — lower, 139 to 144 °C
- CCCC1(COC)CCCSc2cc(/C=C/c3ccc(C(=O)O)cc3)ccc21 (stereo not given) — lower, 169 to 170 °C
- COC(=O)C(Cc1ccc(OC)c(C(=O)NCc2ccc(C(F)(F)F)cc2)c1)S(C)(=O)=O (stereo not given) — lower, 144 to 145 °C
- O=c1cc(COC2CCCCO2)occ1OCc1ccc(CBr)cc1 (stereo not given) — lower, 83.5 °C
- O=C(O)C1Cc2c([nH]c3ccccc23)C(CO)N1 (stereo not given) — higher, 231 to 233 °C
- O=C(CCCN1C(=O)c2ccccc2C1=O)N1CCC(C2c3ncc(Br)cc3CCc3cc(Cl)cc(Br)c32)CC1 (single isomer, unassigned; (+)) — lower, 100 to 102 °C
- COC(=O)c1ccc(OCCNC(=O)C2Cc3ccccc3N2S(=O)(=O)c2ccc(-c3ccc(F)cc3C)cc2)cc1F (stereo not given) — lower, 66 to 75 °C
- COC(=O)c1scc(Cl)c1NC(C)=O — lower, 142 to 147 °C
- c1ccc(-c2nc3ccccc3s2)nc1 — lower, 133 to 134 °C
- NCCNC(=S)Nc1c(Cl)cccc1Cl — lower, 136 to 138 °C
- NC(=O)c1[nH]cnc1OC(=O)C=Cc1ccc(C=O)cc1 — higher, 233 °C
- O=C1Nc2ccc(Cl)cc2C1c1ncnc2c1cnn2C1CCCC1 (stereo not given) — higher, 304 to 306 °C
- O=C1NC(=O)C(Cc2ccc(OCCON=Cc3ccc(-c4ccccc4)cc3)cc2)S1 (stereo not given) — lower, 124 to 127 °C
- N#CCCCCCNC(N)=S — lower, 69 to 71 °C
- Cc1cc2c3c(c1)c(=O)c(C(=O)O)cn3C1CCCCC21 (stereo not given) — higher, 188 to 190 °C
- CCN(CC)CCOC(=O)N1CCC(NC(=O)c2ccccc2)CC1 — lower, 78 to 82 °C
- COc1ccc(S(=O)(=O)c2nccn2C(C)C)cc1 — lower, 84 to 86 °C
- CN(C)CC(O)Cn1c2ccccc2c2c3c(c4c5ccccc5n(C)c4c21)C(=O)NC3=O (stereo not given) — lower, 130 to 135 °C
- CCC(=O)C1=C(O)CC(c2c(C)cc(C)c([N+](=O)[O-])c2C)CC1=O (stereo not given) — lower, 174 °C
- CCCCN(C)C(=NC#N)NCc1cccnc1 — lower, 65 to 69 °C
- CC(C)(C)OC(=O)N1C[C@@H]([C@H]2COC(C)(C)O2)CC1=O — lower, 106 to 108 °C
- Cc1ccc(-c2nc3c(C)cccc3c(=O)[nH]2)c(Cl)c1 — higher, 234 °C
- COCCCN1CC[C@@H](CNC(=O)c2cc(Cl)c(N)c3c2OC(C)(C)C3)[C@H](O)C1 (relative stereo) — lower, 97 °C
- CN(C(=NC#N)Nc1cccnc1)C(NC(=O)c1ccc(Cl)cc1)C(C)(C)C (stereo not given) — lower, 127 to 129 °C
- CC(=O)Nc1ccc(S(F)(F)(F)(F)F)cc1[N+](=O)[O-] — lower, 135 to 138 °C
- Cc1c(F)c(F)c(F)c2c1c(=O)c(C(=O)O)cn2-c1ccc(F)cc1F — higher, 221 to 222 °C
- C#CCOC(=O)N(I)C(C)C(=O)O (stereo not given) — lower, 95 to 99 °C
- Cc1ccc(N2C(=O)C(O)=C(C(=O)c3ccc(C(C)C)cc3)C2c2ccc(O)cc2)nn1 (stereo not given) — higher, 222 to 224 °C
- CCCCC(CBr)CCCc1ccccc1 (stereo not given) — lower, 31 to 33 °C
- Cc1c(C(N)=O)oc2c(C(=O)NCCCN3CCN(c4cc(Cl)ccc4OS(=O)(=O)C(F)(F)F)CC3)cccc2c1=O — lower, 150 to 156 °C
- NC1=NCC(COc2cccc(Cl)c2)O1 (stereo not given) — lower, 128 °C
- O=C1NC(=O)C(CC#Cc2ccc(Cl)cc2)(Sc2ccc(Cl)cc2)S1 (stereo not given) — lower, 144 to 146 °C
- CC(=O)c1cccc([N+](=O)[O-])c1Cl — lower, 41 to 43 °C
- CCOC(=O)c1cc(O)c(C(=O)NCc2ccccc2)cc1O — lower, 110 °C
- S=C(Nc1cccnc1)N1N=CCC1c1ccccc1 (stereo not given) — lower, 156 to 158 °C
- CC(C)(C)c1cc(OCCCCC(=O)O)cc(C(C)(C)C)c1 — lower, 113 to 115 °C
- CC(C)NS(=O)(=O)c1cc(Br)c(N)c(Br)c1 — higher, 181 to 183 °C
- O=C(C=C1c2ccccc2-c2ccccc21)NCCCCCC(=O)NO — lower, 174 to 176 °C
- COCOc1ccc(-c2ccc3c(c2)C=C(C(=O)Nc2ccc(CN(C)C4CCOCC4)cc2)CCS3(=O)=O)cc1 — higher, 227 to 229 °C
- CONC(=O)c1cc(OC)cc(Oc2cccc(C(F)(F)F)c2)n1 — lower, 91 to 92 °C
- C=C1CCCCC1(C(=S)NC)c1cccnc1 (stereo not given) — lower, 106 to 108 °C
- CNc1cc(NS(=O)(=O)c2ccc(N)cc2)nc(N2CCCC2)n1 — higher, 299 to 301 °C
- CC[C@H](C1CC1)n1cc(Cl)nc(N2CCc3cc(OC)cc(C)c32)c1=O — lower, 156 to 158 °C
- CCOC(=O)C(=CNc1ccc(F)c(Cl)c1)C(=O)c1ccccc1Cl — lower, 96 to 102 °C
